Measured values from US9422308B2, “Derivatives of docosahexaenoylethanolamide and uses thereof” (The United States of America, as represented by the …, priority 2012, dated 2016).

What was measured:
cortical neurons = experiment: neurite growth of embryonic mouse neurons (total neurite length/neuron, MAP2 immunostaining); type: cell-based
Method: To obtain embryonic mouse neurons for analysis, pregnant female mice were killed by cervical dislocation after exposure to CO2 inhalation. Embryonic neurons were prepared from E18 or P0 mouse hippocampi or cortex and cultured as described previously (Calderon and Kim, J. Neurochem., 90(4):979-88 (2004), errata in J Neurochem., September; 90(6):1540 (2004)), with slight modification. Briefly, hippocampi or cotices were dissected and dissociated by a method using either 0.25% trypsin (Gibco Invitrogen Corporation, Grand Island, N.Y.) in Hank's balanced salt solution (HBSS) or papain (20-30 U/mL) in dissociation media containing cysteine at 37° C. for 15 min. After the dissociation solution was aspirated off, cells were washed with same volume of HBSS, suspended in neurobasal medium (Gibco) containing 2% B27 supplement (Gibco), 1% glutamine/glutamax mix (1:4) (Gibco), 100 U/ml penicillin (Gibco) and 100 μg/ml streptomycin (Gibco), and seeded on poly-D-lysine chambered slides (Lab-Tek, Naperville, Ill.) at a density of 30,000 cells/cm^2. On the second day after seeding, the cells were treated with fatty acids, synaptamide or one of Compounds 1-50 for 48 h. Docosahexaenoic acid (DHA) and oleic acid (OA) were complexed with fatty acid-free bovine serum albumin (BSA; Sigma, St Louis, Mo.) in the presence of α-tocopherol (Sigma) under an argon atmosphere and darkness to prevent oxidation of the fatty acids. The mixture was mixed with fresh Neurobasal medium containing B27 supplement, glutamine/glutamax mix and antibiotics. Final concentrations of α-tocopherol and BSA in the culture medium were 40 μM and 0.01%, respectively. Alternatively, DHA, OA, synaptamide, or one of Compounds 1-50 were dissolved in DMSO and applied directly together with α-tocopherol. In such case, the final concentration of DMSO is less than 0.005%. All stock solutions were aliquoted under argon and stored at −70° C.
Cells were fixed with […] (Sigma) in PBS (pH 7.4) for 30 min. After permeabilization with 0.1% Triton X-100 (Sigma), cells were blocked for 1 h at 37° C. with PBS containing 10% goat serum (Gibco), and then incubated with the primary antibody against microtubule-associated protein (MAP2, mouse monoclonal 1:250; Sigma). After washing with PBS, cells were incubated with the corresponding Cy2-, Cy3-conjugated secondary antibody (Jackson Immunoresearch Laboratories Inc., West Grove, Pa.). For the nuclear staining, 0.06% 4,6-Diamidino-2-Phenylindole (Sigma) was used. After immunostaining, images were collected using an inverted motorized 1×81 Olympus (Melville, N.Y.) and the neurite length was analyzed with Metamorph software (Molecular Devices Corporation, Downingtown, Pa.). To minimize bias, neurons were evaluated blindly without the knowledge of sample identity. Four to six fields/well were chosen at random and only non-clustered neurons were evaluated to ensure the precision of the measurements. From each well, over 100 neurons were evaluated at 20× magnification for total neurite length/neuron. The data were obtained from triplicate wells and the experiments were repeated at least three times.
FIG. 2 provides graphical results of the data shown in Table 2, expressed as total neurite length per neuron. FIG. 3 provides graphical results of these experiments for compounds 11-50 (having designations as provided in Table 1, above), expressed as relative neurite length as compared to untreated controls. FIG. 4 provides graphical results of these experiments for compounds 1-10 (having designations as provided in Table 1, above), as applied to hippocampal neurons.
An additional assay was performed in which Compounds (A8), 4(A10), and 7(A9) were applied at varying dosages (from 10^−5 nM to 10 nM; 10^−5 nM, 10^−4 nM, 10^−2 nM, 0.1 nM, 1 nM, and 10 nM) as compared to DHA, synaptamide, and oleic acid. Neurite growth was measured at each dosage. Results of this assay are provided at FIG. 1.

[1] = test system: fatty acid amide hydrolase (FAAH); experiment: incubation with WT or FAAH KO brain homogenates (susceptibility to FAAH hydrolysis); type: in vitro ADME, mouse; conditions: for susceptibility to hydrolysis by FAAH: WT or FAAH KO brain homogenates
Method: Wildtype (WT) or FAAH knock out (KO) brain homogenates were incubated with either A8 or synaptamide.
Incubation of synaptamide and A8 with brain homogenates: Make 5× pH 9 assay buffer (625 mM Tris, 5 mM EDTA). Collect fresh brains of C57 mice into cold 1× pH 9 assay buffer. Homogenize entire brain (including cerebellum) in 2 mL of cold buffer using a conical Potter-Evehjem type tissue homogenizer driven by a motor. Perform incubations in washed and silanized 10 mL glass test tubes at 37° C. for 1 hour. Add 10 pmoles each of A8 and d4-synaptamide (5 uL of a 2 pmol/uL mixture of A8 and d4-synaptamide in DMSO). See Kim et al., Prostaglandins & Other Lipid Mediators, 96(1-4):114-120 (2011) for the structure of d4-synaptamide (d4-DEA). Add 500 μL of brain homogenate per incubation tube. Vortex gently. Incubate at 37° C. in a water bath, shaking at 42 rpm for 1 hour. Stop reaction by adding 1 mL chloroform, 1 mL methanol, 1 mL methanol/BHT (50 mg/L BHT) and 300 μL water. Vortex to mix, store under an inert gas at −80° C. until. Ready to extract via the method of Bligh and Dyer, Canadian J. Biochem. 37: 911-917, 1959.
Extraction procedure: Incubations are already in the 1st Bligh-Dyer ration (0.8:1:2 aqueous:CHCl3:MeOH). Work on wet ice. Add 10 pmoles of d4-anandamide which will be used as an internal standard to give relative quantification of the unhydrolyzed d4-synaptamide and A8. Add 1 mL water and 1 mL CHCl3 to each tube, purge with nitrogen, vortex vigorously 1 minute. Centrifuge 5 minutes at 4° C.; 3,000 rpm (Sorvall RTH 750 rotor) to separate phases. Extract the organic phase (bottom layer) to a clean silanized 10 mL test tube using glass Pasteur pipette. Avoid getting any aqueous phase in extract. Add 2 mL CHCl3 to the aqueous phase, purge with nitrogen and vortex 1 minute. […] Cap vials under argon and store at −80° C. until ready to analyze via HPLC-MS.
Ten pmoles each of A8 and d4-synaptamide were incubated with WT or FAAH KO brain homogenates or buffer (B, […]). Relative quantitation was performed via SRM mass spectrometry.

percent recovery of compound after incubation with brain homogenate ([1]; WT and FAAH KO brain homogenate, FIG. 5, compared with synaptamide): higher than synaptamide
SMILES: CC/C=C\C/C=C\C/C=C\C/C=C\C/C=C\C/C=C\CCC(=O)NCC(C)(C)O [Compound 1, (4Z,7Z,10Z,13Z,16Z,19Z)—N-(2-hydroxy-2-methylpropyl)docosa-4,7,10,13,16,19-hexaenamide]
Neurite Length/Neuron (mean) (cortical neurons; cortical neurons, 10 nM (FIG. 2), 48 h): 41.3 μm
effect with respect to cortical neurite growth as compared to DHA (cortical neurons; cortical neurons, FIGS. 1, 2): superior effect
dosage at which activity is exhibited as compared to DHA and synaptamide (cortical neurons; dosages 10^-5 nM to 10 nM, FIG. 1): activity at significantly lower dosages
susceptibility to hydrolysis by FAAH ([1]; Example 3, FIG. 5): less susceptible to hydrolysis by FAAH than synaptamide
susceptibility to hydrolysis by FAAH ([1]; Example 4, 10 pmoles, pH 9, 37° C., 1 hour, FIG. 6, vs d4-synaptamide): less susceptible to hydrolysis by FAAH than the deuterated synaptamide
